Test results from patent US20080146555A1, “Uses of Kinase Inhibitors and Compositions Thereof” (GPC Biotech, Inc, priority 2004, published 2008).
Structures can show the parent of a compound that is named as a salt. Where two headings read alike, the source gives them in different places.

Legend:
Type in all cases: biochemical
c-Kit = target: T1, c-Kit (Homo sapiens, UniProt P10721); experiment: c-Kit kinase assay (ProQinase); settings: read-out: KIT Inhibition (IC50)
T1 construct: purchased ProQinase (printed 'ProQuinase', Freiburg, Germany)
T1 sequence (P10721 26-976): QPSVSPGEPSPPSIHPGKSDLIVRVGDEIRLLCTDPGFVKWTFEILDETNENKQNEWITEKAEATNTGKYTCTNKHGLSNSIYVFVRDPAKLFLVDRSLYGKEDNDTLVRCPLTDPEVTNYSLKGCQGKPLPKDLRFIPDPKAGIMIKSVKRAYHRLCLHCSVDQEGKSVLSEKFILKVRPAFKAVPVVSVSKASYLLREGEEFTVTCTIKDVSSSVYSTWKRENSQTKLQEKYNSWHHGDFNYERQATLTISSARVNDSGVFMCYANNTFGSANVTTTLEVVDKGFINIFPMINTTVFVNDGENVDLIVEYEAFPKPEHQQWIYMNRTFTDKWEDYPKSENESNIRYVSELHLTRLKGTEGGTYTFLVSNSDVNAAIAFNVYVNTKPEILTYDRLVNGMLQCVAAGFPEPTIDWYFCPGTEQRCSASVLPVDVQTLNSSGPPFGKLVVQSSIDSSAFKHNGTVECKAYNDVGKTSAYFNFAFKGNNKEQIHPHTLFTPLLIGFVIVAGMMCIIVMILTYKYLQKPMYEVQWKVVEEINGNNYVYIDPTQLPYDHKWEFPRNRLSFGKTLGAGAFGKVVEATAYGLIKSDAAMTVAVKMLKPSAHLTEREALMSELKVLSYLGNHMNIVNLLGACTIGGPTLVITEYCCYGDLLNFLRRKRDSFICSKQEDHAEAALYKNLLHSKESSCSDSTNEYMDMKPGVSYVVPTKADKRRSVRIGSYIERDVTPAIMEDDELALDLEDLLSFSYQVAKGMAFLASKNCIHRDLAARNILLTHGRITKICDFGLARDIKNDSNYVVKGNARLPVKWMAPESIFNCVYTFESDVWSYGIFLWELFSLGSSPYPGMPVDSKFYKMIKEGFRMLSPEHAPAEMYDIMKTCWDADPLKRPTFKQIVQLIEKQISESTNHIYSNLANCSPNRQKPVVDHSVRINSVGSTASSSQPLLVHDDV
Description: • c-kit can be assayed, for example, using the PanQinase Activity Assay or ProQuinase (Freiburg, Germany). Briefly:
Assay buffer-60 mM HEPES-NaOH, pH 7.5, 3 mM MgCl2, 3 mM MnCl2, 3 uM Na-orthovanadate, 1.2 mM DTT, 50 ug/ml PEG 20000, 1 uM [γ-^33P] ATP (approx. 5×10^5 cpm per well) • Reaction cocktail-20 ul assay buffer, 5 ul ATP, 5 ul test compound (in 10% DMSO), 10 ul substrate/10 ul enzyme=100 ng (pre-mixed). • The reaction cocktails are incubated at 30° C. for 80 minutes and terminated with addition of 50 ul 2% H3PO4. The plates are aspirated and washed two times with 200 ul H2O or 200 ul NaCl. Incorporation of radiolabelled substrate is determined with a microplate scintillation counter such as described in the Technical Note above.

Blk = target: T2, Blk (Homo sapiens, UniProt P51451); experiment: Blk kinase assay
T2 construct: purchased Upstate 14-517
T2 sequence (P51451 whole entry): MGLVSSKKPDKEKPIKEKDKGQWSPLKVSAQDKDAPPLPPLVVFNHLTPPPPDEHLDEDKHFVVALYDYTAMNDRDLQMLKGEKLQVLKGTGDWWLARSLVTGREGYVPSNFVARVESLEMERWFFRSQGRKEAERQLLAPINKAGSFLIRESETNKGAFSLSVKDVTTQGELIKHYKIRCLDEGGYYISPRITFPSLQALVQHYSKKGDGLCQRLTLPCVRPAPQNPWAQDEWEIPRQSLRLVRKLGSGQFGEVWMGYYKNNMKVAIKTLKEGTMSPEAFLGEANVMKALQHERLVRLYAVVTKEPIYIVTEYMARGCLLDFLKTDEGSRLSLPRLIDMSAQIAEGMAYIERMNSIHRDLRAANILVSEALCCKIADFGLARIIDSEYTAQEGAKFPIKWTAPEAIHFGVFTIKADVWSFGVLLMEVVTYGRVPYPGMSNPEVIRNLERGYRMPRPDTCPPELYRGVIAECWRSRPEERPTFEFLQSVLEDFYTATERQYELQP
Description: • 1. 10× Reaction buffer: […], 1 mM sodium orthovanadate, 1% 2-mercaptoethanol. • 2. Enzyme Dilution Buffer (EDB): 50 mM Tris-HCl pH 7.5, 0.1 mM EGTA, 0.1 mM sodium orthovanadate, 0.1% 2-mercaptoethanol 0.03% Brij-35. • 3. Blk (human), active: Dilute to 4-40 ng/μl with EDB. Use 2.5 μl per assay point. • 4. Poly(Glu-4-Tyr) (4:1): Prepare a 1 mg/ml stock. Use 2.5 μl per assay point for a final assay concentration of 0.1 mg/ml per assay point. • 5. [γ-^32P]ATP: Stock 1 mCi/100 μl (3000 Ci/mmol, obtained from PerkinElmer, Cat. # BLU002A). Make 10 μl aliquots (100 μCi/vial). Before starting the assay, dilute an aliquot to 1 μCi/μl with 90 μl of 75 mM MgCl2 and 500 μM cold ATP in 20 mM MOPS, pH 7.2, 25 mM β-glycerol phosphate, 5 mM EGTA, 1 mM sodium orthovanadate, 1 mM dithiothreitol.
• 1. Add 2.5 μl of 10× Reaction Buffer per assay. • 2. Add 2.5 μl (0.1 mg/ml) of Poly (Glu-4-Tyr) (4:1). • 3. Add 2.5 μl (10-100 ng) of Blk (human), active. • 4. Add 7.5 μl sterile, distilled water. • 5. Add 10 μl of the diluted [γ-^32P]ATP solution. • 6. Incubate for 10 minutes at 30° C. • 7. Transfer a 20 μl aliquot onto the center of a […]. • 8. Wash the assay squares three times for 5 minutes with 0.75% phosphoric acid. • 9. Wash the assay squares once for 5 minutes with acetone. • 10. Transfer the assay squares to vial and add 1 ml scintillation cocktail. • 11. Read in scintillation counter. Compare cpm of enzyme samples to cpm of control samples that contain background control.

JNK3 = target: T3, JNK3 (Homo sapiens, UniProt P53779); experiment: JNK3 kinase assay
T3 construct: purchased Upstate 14-501
T3 sequence (P53779 39-464): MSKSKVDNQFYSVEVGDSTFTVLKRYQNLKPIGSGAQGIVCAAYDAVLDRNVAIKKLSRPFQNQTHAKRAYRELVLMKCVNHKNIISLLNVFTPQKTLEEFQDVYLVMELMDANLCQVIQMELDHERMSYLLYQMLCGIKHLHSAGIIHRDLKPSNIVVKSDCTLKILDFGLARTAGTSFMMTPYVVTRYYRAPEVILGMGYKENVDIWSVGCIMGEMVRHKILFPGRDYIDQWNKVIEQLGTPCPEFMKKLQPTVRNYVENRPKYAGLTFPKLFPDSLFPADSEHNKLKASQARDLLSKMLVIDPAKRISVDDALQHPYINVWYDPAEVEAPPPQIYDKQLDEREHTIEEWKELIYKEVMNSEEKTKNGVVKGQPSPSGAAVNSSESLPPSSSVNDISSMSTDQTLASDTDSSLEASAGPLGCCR
Description: • 1. 10× Reaction Buffer: 500 mM Tris-HCl pH 7.5, 1 mM EGTA, 1% 2-mercaptoethanol. • 2. Enzyme Dilution Buffer (EDB): 50 mM Tris-HCl pH 7.5, 0.1 mM EGTA, 0.1% 2-mercaptoethanol, 1 mg/ml BSA, 0.03% Brij-35. • 3. JNK3/SAPK1b, active: Dilute to 4-24 ng/μl with EDB. Use 2.5 μl per assay point. • 4. ATF2 (amino acids 19-96) (Catalog #12-367): Prepare a 1.08 mg/ml stock. Use 2.5 μl per assay point for a final concentration of 3 μM per assay point. • 5. [γ-^32P]ATP: Stock 1 mCi/100 μl (3000 Ci/mmol, obtained from PerkinElmer, Cat. # BLU002A). Make 10 μl aliquots (100 μCi/vial). Before starting the assay, dilute an aliquot to 1 μCi/μl with 90 μl of 75 mM MgCl2 and 500 μM cold ATP in 20 mM MOPS, pH 7.2, 25 mM β-glycerol phosphate, 5 mM EGTA, 1 mM sodium orthovanadate, 1 mM dithiothreitol.
• 1. Add 2.5 μl of 10× Reaction Buffer per assay. • 2. Add 2.5 μl of ATF2 (amino acids 19-96). • 3. Add 2.5 μl (10-60 ng) JNK3/SAPK1b, active. • 4. Add 7.5 μl of sterile, distilled water. • 5. Add 10 μl of the diluted [γ-^32P]ATP mixture. • 6. Incubate for 10 minutes at 30° C. • 7. Transfer a 20 μl aliquot onto the center of a 2 cm×2 cm P81 paper. • 8. Wash the assay squares three times for 5 minutes with 0.75% phosphoric acid. • 9. Wash the assay squares once for 5 minutes with acetone. • 10. Transfer the assay squares to vial and add 5 ml scintillation cocktail. • 11. Read in scintillation counter. Compare cpm of enzyme samples to cpm of control samples that contain background control.

[1] = read-out: BLK Inhibition (IC50)
[2] = kinase panel, 10 μM ATP, read-out: JNK3 IC50
[3] = read-out: MAPK10 Inhibition (IC50)

SMILES | IC50 (c-Kit) [nM] | IC50 (Blk; [1]) [nM] | IC50 (JNK3; [2]) [nM] | IC50 (JNK3; [3]) [nM] | IC50 (Blk; kinase panel, read-out: Blk IC50) [nM]
CC(C)N1CCN(C(=O)COc2ccc(-c3n[nH]c4c3C(=O)c3c(NC(=O)NN5CCOCC5)cccc3-4)cc2)CC1 [Compound A37] | < 500 | < 100 | 10 to 100 | < 50 | –
COCCN1CCN(Cc2ccc(-c3n[nH]c4c3C(=O)c3c(NC(=O)NN5CCOCC5)cccc3-4)cc2)CC1 [Compound B16, N-[3-(4-{[4-(2-methoxyethyl)piperazinyl]methyl}phenyl)-4-oxoindeno[2,3-d]pyrazol-5-yl](morpholin-4-ylamino)carboxamide dihydrochloride] | < 500 | < 100 | < 100 | < 50 | < 100
